Measured values taken from patent US12370161B2, “Composition for treating atopy or pruritus comprising N-acetyl or N-acyl amino acid” (STEMDR INC., priority 2017, dated 2025).

Columns and labels:
[1] = system: atopic dermatitis-induced Nc/Nga mouse; test: SCORAD clinical skin score, DNFB-induced atopic dermatitis in Nc/Nga mouse; type: in vivo; set-up: key to Mouse 1 Erythema / Mouse 2 Eschar / Mouse 2 Dryness / Mouse 2 Abrasion / Mouse 1 Edema / Mouse 1 Eschar / Mouse 1 Dryness / Mouse 1 Abrasion / Mouse 2 Erythema / Mouse 2 Edema / Mouse 3 Erythema / Mouse 3 Edema / Mouse 3 Eschar / Mouse 3 Dryness / Mouse 3 Abrasion: 0 = no symptom, 1 = mild, 2 = moderate, 3 = severe; key to Mouse 1 Sum / Mean (of Sum, SCORAD) / Mouse 3 Sum: sum of individual symptom scores, each graded 0-3; details: for dermatitis-treating effect of L-, L/D- and D-form (FIG. 6): Nc/Nga atopic dermatitis model, 0.1%; for Mouse 1 Erythema: DNFB Nc/Nga (FIG. 8), 0.1% in PBS, 200 μL on back skin daily day 15-21; for Mouse 1 Erythema / Mouse 1 Abrasion / Mouse 1 Dryness / Mouse 1 Edema / Mouse 1 Eschar / Mouse 1 Lichenification / Mouse 2 Abrasion / Mouse 2 Dryness / Mouse 2 Edema / Mouse 2 Erythema / Mouse 2 Eschar / Mouse 2 Lichenification / Mouse 3 Abrasion / Mouse 3 Dryness / Mouse 3 Edema / Mouse 3 Erythema / Mouse 3 Eschar / Mouse 3 Lichenification: graded per Example 4; for Mouse 1 Abrasion / Mouse 1 Dryness / Mouse 1 Edema / Mouse 1 Eschar / Mouse 1 Lichenification / Mouse 1 Sum / Mouse 2 Abrasion / Mouse 2 Dryness / Mouse 2 Edema / Mouse 2 Erythema / Mouse 2 Eschar / Mouse 2 Lichenification / Mouse 2 Sum / Mouse 3 Abrasion / Mouse 3 Dryness / Mouse 3 Edema / Mouse 3 Erythema / Mouse 3 Eschar / Mouse 3 Lichenification / Mouse 3 Sum / Mean (of Sum, SCORAD): DNFB Nc/Nga, 0.1% topical day 15-21; for Mouse 1 Sum / Mouse 2 Sum / Mouse 3 Sum: sum of individual scores; for Mean (of Sum, SCORAD): mean of 3 mice
Experimental: In order to establish a model more similar to an atopy model than that of the Balb/c mice, atopy was induced in Nc/Nga mouse mice. Specifically, after inducing DNFB sensitization by applying 100 μL of 0.35% 2,4-dinitrofluorobenzene (DNFB) in acetone/olive oil (3:1) on the shaved back skin, dermatitis was induced by applying 100 μL of 0.15% DNFB for 4-20 days, every other day. Control mice were treated with a vehicle of the same volume (FIG. 1B).
(§1) After dissolving an N-acetyl or N-acylamino acid in phosphate-buffered saline to 0.1%, 200 μL of the solution was applied on the back skin of the mice every day, from day 22 until day 28 for the Balb/c atopic dermatitis model, and from day 15 until day 21 for the Nc/Nga atopic dermatitis model. When the N-acetyl or N-acylamino acid was treated together with DNFB, they were treated with 12-hour intervals in order to avoid direct reaction between the DNFB and the N-acetyl or N-acylamino acid. A non-treated group and a 2,4-dinitrofluorobenzene (DNFB) group were treated with phosphate-buffered saline of the same volume (FIGS. 1A-1B). As the N-acetylamino acid, products purchased from Sigma-Aldrich (USA), MP scientific (USA), TCI (Tokyo Chemical Industry, Japan), Santacruz (USA), etc. were used without purification.
(§2) The degree of skin soothing and the severity of atopic dermatitis were evaluated macroscopically according to the previously established SCORAD (SCORing Atopic Dermatitis) method (Oranje et al., 2007). The degree of symptoms such as edema, erythema, eschar, dryness, abrasion, lichenification, etc. was graded from 0 to 3 (0, no symptom; 1, mild; 2, moderate; 3, severe). The overall dermatitis score was determined from the sum of all individual scores (Table 1). The assessment was performed by an investigator who was blind to the grouping of the mice.
Skin-soothing effect and the severity of dermatitis were evaluated for the acyl derivatives of tryptophan synthesized in Example 9, the acyl derivative of alanine synthesized in Example 10 and N-palmitoylalanine (purchased from Santacruz (USA)) according to the method of Example 4 (Table 2)

[2] = system: atopic dermatitis-induced Balb/c mouse; test: SCORAD clinical skin score, DNFB-induced atopic dermatitis in Balb/c mouse; type: in vivo; set-up: key to Mouse 1 Sum / Mean (of Sum, SCORAD) / Mouse 2 Sum / Mouse 3 Sum: sum of symptom grades, each 0 (none) to 3 (severe); details: DNFB Balb/c; for Mouse 1 Erythema: 0.1% in PBS, 200 μL on back skin daily day 22-28, grade 0-3 (0 no symptom, 1 mild, 2 moderate, 3 severe); for Mouse 1 Abrasion / Mouse 1 Dryness / Mouse 1 Edema / Mouse 1 Eschar / Mouse 1 Lichenification / Mouse 1 Sum / Mouse 2 Abrasion / Mouse 2 Dryness / Mouse 2 Edema / Mouse 2 Erythema / Mouse 2 Eschar / Mouse 2 Lichenification / Mouse 2 Sum / Mouse 3 Abrasion / Mouse 3 Dryness / Mouse 3 Edema / Mouse 3 Erythema / Mouse 3 Eschar / Mouse 3 Lichenification / Mouse 3 Sum / Mean (of Sum, SCORAD): 0.1% topical day 22-28; for Mouse 1 Abrasion / Mouse 1 Dryness / Mouse 1 Edema / Mouse 1 Eschar / Mouse 1 Lichenification / Mouse 2 Abrasion / Mouse 2 Dryness / Mouse 2 Edema / Mouse 2 Erythema / Mouse 2 Eschar / Mouse 2 Lichenification / Mouse 3 Abrasion / Mouse 3 Dryness / Mouse 3 Edema / Mouse 3 Erythema / Mouse 3 Eschar / Mouse 3 Lichenification: grade 0-3; for Mouse 1 Sum / Mouse 2 Sum / Mouse 3 Sum: overall dermatitis score, sum of individual scores; for Mean (of Sum, SCORAD): mean of 3 mice
Experimental: In order to induce atopy-like dermatitis in Balb/c mice, DNFB sensitization was induced by applying 100 μL of 0.35% 2,4-dinitrofluorobenzene (DNFB) (Sigma, USA) in acetone/olive oil (3:1) on the shaved back skin of the mice. Then, dermatitis was induced by applying 100 μL of 0.25% DNFB on days 6, 9, 12, 15, 18 21, 24 and 27 on the shaved back skin. Control mice were treated with a vehicle of the same volume (FIG. 1A).
as §1, §2

CC(=O)N[C@@H](C)C(=O)O [D-form N-acetylalanine, N-acetylalanine, reference compound]
dermatitis-treating effect of L-, L/D- and D-form (FIG. 6) [1]: no effect

CC(=O)N[C@@H](Cc1c[nH]c2ccccc12)C(=O)O [D-form N-acetyltryptophan, N-acetyltryptophan, reference compound]
dermatitis-treating effect of L-, L/D- and D-form (FIG. 6) [1]: no effect

CCCCCCCC/C=C\CCCCCCCCCCCC(=O)N[C@@H](Cc1c[nH]c2ccccc12)C(=O)O [N-(Z)-docos-13-enoyl L-tryptophan, N—(Z)-docos-13-enoyl-L-tryptophan]
Mouse 1 Erythema [1]: 1 | Mouse 1 Abrasion [1]: 1 | Mouse 1 Dryness [1]: 1 | Mouse 1 Edema [1]: 1 | Mouse 1 Eschar [1]: 1 | Mouse 1 Lichenification [1]: 0 | Mouse 1 Sum [1]: 5 | Mouse 2 Abrasion [1]: 1 | Mouse 2 Dryness [1]: 2 | Mouse 2 Edema [1]: 1 | Mouse 2 Erythema [1]: 1 | Mouse 2 Eschar [1]: 2 | Mouse 2 Lichenification [1]: 0 | Mouse 2 Sum [1]: 7 | Mouse 3 Abrasion [1]: 1 | Mouse 3 Dryness [1]: 2 | Mouse 3 Edema [1]: 1 | Mouse 3 Erythema [1]: 2 | Mouse 3 Eschar [1]: 2 | Mouse 3 Lichenification [1]: 1 | Mouse 3 Sum [1]: 9 | Mean (of Sum, SCORAD) [1]: 7

CSCC[C@H](NC(C)=O)C(=O)O [N-acetyl-L-methionine]
Mouse 1 Erythema [2]: 2 | Mouse 1 Abrasion [2]: 2 | Mouse 1 Dryness [2]: 3 | Mouse 1 Edema [2]: 2 | Mouse 1 Eschar [2]: 2 | Mouse 1 Lichenification [2]: 3 | Mouse 1 Sum [2]: 14 | Mouse 2 Abrasion [2]: 2 | Mouse 2 Dryness [2]: 3 | Mouse 2 Edema [2]: 2 | Mouse 2 Erythema [2]: 3 | Mouse 2 Eschar [2]: 3 | Mouse 2 Lichenification [2]: 3 | Mouse 2 Sum [2]: 16 | Mouse 3 Abrasion [2]: 2 | Mouse 3 Dryness [2]: 3 | Mouse 3 Edema [2]: 2 | Mouse 3 Erythema [2]: 2 | Mouse 3 Eschar [2]: 2 | Mouse 3 Lichenification [2]: 3 | Mouse 3 Sum [2]: 14 | Mean (of Sum, SCORAD) [2]: 14.67

CC(=O)N[C@@H](Cc1ccccc1)C(=O)O [N-acetyl-L-phenylalanme]
Mouse 1 Erythema [2]: 3 | Mouse 1 Abrasion [2]: 2 | Mouse 1 Dryness [2]: 3 | Mouse 1 Edema [2]: 2 | Mouse 1 Eschar [2]: 1 | Mouse 1 Lichenification [2]: 2 | Mouse 1 Sum [2]: 13 | Mouse 2 Abrasion [2]: 2 | Mouse 2 Dryness [2]: 3 | Mouse 2 Edema [2]: 2 | Mouse 2 Erythema [2]: 3 | Mouse 2 Eschar [2]: 2 | Mouse 2 Lichenification [2]: 3 | Mouse 2 Sum [2]: 15 | Mouse 3 Abrasion [2]: 1 | Mouse 3 Dryness [2]: 3 | Mouse 3 Edema [2]: 2 | Mouse 3 Erythema [2]: 3 | Mouse 3 Eschar [2]: 2 | Mouse 3 Lichenification [2]: 3 | Mouse 3 Sum [2]: 14 | Mean (of Sum, SCORAD) [2]: 14

CC(=O)N1CCC[C@H]1C(=O)O [N-acetyl-L-proline]
Mouse 1 Erythema [2]: 3 | Mouse 1 Abrasion [2]: 2 | Mouse 1 Dryness [2]: 3 | Mouse 1 Edema [2]: 2 | Mouse 1 Eschar [2]: 1 | Mouse 1 Lichenification [2]: 2 | Mouse 1 Sum [2]: 13 | Mouse 2 Abrasion [2]: 2 | Mouse 2 Dryness [2]: 3 | Mouse 2 Edema [2]: 3 | Mouse 2 Erythema [2]: 2 | Mouse 2 Eschar [2]: 2 | Mouse 2 Lichenification [2]: 2 | Mouse 2 Sum [2]: 14 | Mouse 3 Abrasion [2]: 1 | Mouse 3 Dryness [2]: 3 | Mouse 3 Edema [2]: 2 | Mouse 3 Erythema [2]: 3 | Mouse 3 Eschar [2]: 2 | Mouse 3 Lichenification [2]: 2 | Mouse 3 Sum [2]: 13 | Mean (of Sum, SCORAD) [2]: 13.33

CC(=O)N[C@@H](CO)C(=O)O [N-acetyl-L-serine]
Mouse 1 Erythema [2]: 3 | Mouse 1 Abrasion [2]: 2 | Mouse 1 Dryness [2]: 2 | Mouse 1 Edema [2]: 2 | Mouse 1 Eschar [2]: 2 | Mouse 1 Lichenification [2]: 2 | Mouse 1 Sum [2]: 13 | Mouse 2 Abrasion [2]: 2 | Mouse 2 Dryness [2]: 3 | Mouse 2 Edema [2]: 2 | Mouse 2 Erythema [2]: 3 | Mouse 2 Eschar [2]: 2 | Mouse 2 Lichenification [2]: 3 | Mouse 2 Sum [2]: 15 | Mouse 3 Abrasion [2]: 2 | Mouse 3 Dryness [2]: 3 | Mouse 3 Edema [2]: 2 | Mouse 3 Erythema [2]: 3 | Mouse 3 Eschar [2]: 2 | Mouse 3 Lichenification [2]: 2 | Mouse 3 Sum [2]: 14 | Mean (of Sum, SCORAD) [2]: 14

CC(=O)N[C@@H](Cc1ccc(O)cc1)C(=O)O [N-acetyl-L-tyrosme]
Mouse 1 Erythema [2]: 3 | Mouse 1 Abrasion [2]: 2 | Mouse 1 Dryness [2]: 3 | Mouse 1 Edema [2]: 2 | Mouse 1 Eschar [2]: 3 | Mouse 1 Lichenification [2]: 2 | Mouse 1 Sum [2]: 15 | Mouse 2 Abrasion [2]: 2 | Mouse 2 Dryness [2]: 3 | Mouse 2 Edema [2]: 2 | Mouse 2 Erythema [2]: 3 | Mouse 2 Eschar [2]: 2 | Mouse 2 Lichenification [2]: 3 | Mouse 2 Sum [2]: 15 | Mouse 3 Abrasion [2]: 2 | Mouse 3 Dryness [2]: 2 | Mouse 3 Edema [2]: 2 | Mouse 3 Erythema [2]: 3 | Mouse 3 Eschar [2]: 2 | Mouse 3 Lichenification [2]: 2 | Mouse 3 Sum [2]: 13 | Mean (of Sum, SCORAD) [2]: 14.33

CC(=O)N[C@H](C(=O)O)C(C)C [N-acetyl-L-valine]
Mouse 1 Erythema [2]: 3 | Mouse 1 Abrasion [2]: 2 | Mouse 1 Dryness [2]: 2 | Mouse 1 Edema [2]: 2 | Mouse 1 Eschar [2]: 2 | Mouse 1 Lichenification [2]: 3 | Mouse 1 Sum [2]: 14 | Mouse 2 Abrasion [2]: 2 | Mouse 2 Dryness [2]: 2 | Mouse 2 Edema [2]: 2 | Mouse 2 Erythema [2]: 2 | Mouse 2 Eschar [2]: 2 | Mouse 2 Lichenification [2]: 3 | Mouse 2 Sum [2]: 13 | Mouse 3 Abrasion [2]: 1 | Mouse 3 Dryness [2]: 3 | Mouse 3 Edema [2]: 2 | Mouse 3 Erythema [2]: 2 | Mouse 3 Eschar [2]: 2 | Mouse 3 Lichenification [2]: 2 | Mouse 3 Sum [2]: 12 | Mean (of Sum, SCORAD) [2]: 13

CC(=O)N[C@@H](CCC(=O)N[C@@H](C)C(=O)O)C(=O)O [N-acetyly-glutammyl-L-alanine, N-acetyl-γ-glutammyl-L-alanine]
Mouse 1 Erythema [1]: 0 | Mouse 1 Abrasion [1]: 1 | Mouse 1 Dryness [1]: 0 | Mouse 1 Edema [1]: 1 | Mouse 1 Eschar [1]: 0 | Mouse 1 Lichenification [1]: 2 | Mouse 1 Sum [1]: 4 | Mouse 2 Abrasion [1]: 1 | Mouse 2 Dryness [1]: 1 | Mouse 2 Edema [1]: 1 | Mouse 2 Erythema [1]: 1 | Mouse 2 Eschar [1]: 2 | Mouse 2 Lichenification [1]: 2 | Mouse 2 Sum [1]: 8 | Mouse 3 Abrasion [1]: 1 | Mouse 3 Dryness [1]: 0 | Mouse 3 Edema [1]: 1 | Mouse 3 Erythema [1]: 1 | Mouse 3 Eschar [1]: 1 | Mouse 3 Lichenification [1]: 2 | Mouse 3 Sum [1]: 6 | Mean (of Sum, SCORAD) [1]: 6
